Data published in paper PMC12070605 (BMC Chemistry, 2025).

Key:
Type in all cases: cell-based, human
[1] = system: MCF-7 cell line; experiment: MTT cytotoxicity assay, MCF-7
[2] = system: MCF-7 cell line; experiment: Cell cycle analysis by flow cytometry; conditions: 72 h, untreated 15.93%
[3] = system: MCF-7 cell line; experiment: Annexin V-PI flow cytometry apoptosis assay; conditions: 72 h, untreated 4.5%

SMILES: NNc1nc2ccc(Br)cc2c(=O)n1-c1ccc(F)cc1 [7j, 6-bromo-3-(4-fluorophenyl)-2-hydrazineylquinazolin-4(3H)-one]
- improvement of activity compared to Erlotinib [1]: 6 folds

SMILES: NNc1nc2ccc(Br)cc2c(=O)n1-c1ccc(Cl)cc1 [7k, 6-bromo-3-(4-chlorophenyl)-2-hydrazineylquinazolin-4(3H)-one]
- accumulation of the cells in S phase ([2]; 5 µM): 16.66%
- accumulation of the cells in S phase ([2]; 10 µM): 25.65%
- accumulation of the cells in S phase ([2]; 20 µM): 30.61%
- percentage of apoptotic cells ([3]; 5 µM): 17.46%
- percentage of apoptotic cells ([3]; 10 µM): 41.2%
- percentage of apoptotic cells ([3]; 20 µM): 56%
- improvement of activity compared to Erlotinib [1]: 6 folds
